In patent publication US20100209345A1, “Fluorinated Ligands for Targeting Peripheral Benzodiazepine Receptors” (Australian Nuclear Science & Technology Organisation, priority 2006, published 2010):

Assays:
[1] = molecular target: T1, peripheral benzodiazepine binding site (Rattus norvegicus, UniProt P16257); test: In vitro binding, [3H]-PK11195, kidney membrane preparation; conditions: PBR IC50 (nM), [3H]-PK11195 (2 nM), 4° C., 1 h
T1 construct: diluted kidney membrane preparation (200 μg); from tissue; host or cells: kidney membrane preparation
Procedure, shortened: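 Membrane binding terminated by rapid GF/B filtration, filters washed with ice-cold 50 mM Tris/HCl pH 7.4 and bound radioactivity counted by β-scintillation. Non-specific binding defined with PK11195 (10 μM) or, for the central benzodiazepine receptor, Flumazenil (20 μM). IC50 values calculated from displacement.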

[2] = Biodistribution of 18F-labelled tracers in rats; type: in vivo
Procedure, shortened: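 Sprague-Dawley rats received 18F tracer, and brain and peripheral tissues were analysed at 15 and 30 min and 1 and 4 h post-injection. For specificity, rats were pretreated 5 min beforehand with PK11195 or Ro 5-4864 (PBR) or flumazenil (CBR), each at 1 mg/kg.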

[3] = SD rats, 15 min, decay correction not stated
[4] = SD rats, 4 hours, decay correction not stated
[5] = rats, 15 min, corrected for decay of 18F
[6] = rats, 15 min, not corrected for decay of 18F
[7] = rats, 30 min, corrected for decay of 18F
[8] = rats, 30 min, not corrected for decay of 18F
[9] = rats, 60 min (1 hour), not corrected for decay of 18F
[10] = rats, 60 min, corrected for decay of 18F
[11] = rats, 4 hours, corrected for decay of 18F
[12] = rats, 4 hours, not corrected for decay of 18F

## CCN(CC)C(=O)Cc1c(-c2ccc(OCCCF)cc2)nc2ccc(Cl)cn12 [PBR111, 2-(2-(4-(3-fluoropropoxy)phenyl)-6-chloroimidazo[1,2-a]pyridin-3-yl)-N,N-diethylacetamide]
[1]
  IC50: 7.5 nM
[2]; [3]
  Biodistribution: Blood: 0.4 % ID/g
  Biodistribution: Bone: 0.87 % ID/g
  Biodistribution: Kidney: 3.2 % ID/g
  Biodistribution: Olfactory bulbs: 0.64 % ID/g
[2]; SD rats, 30 min, decay correction not stated
  Biodistribution: Adrenals: 6.5 % ID/g
[2]; [4]
  Biodistribution: Adrenals: 16 % ID/g
  Biodistribution: Blood: 0.1 % ID/g
  Biodistribution: Bone: 4.3 % ID/g
  Biodistribution: Kidney: 2.3 % ID/g
  Biodistribution: Olfactory bulbs: 0.41 % ID/g
[2]; [5]
  Biodistribution: Bone: 0.87 ± 0.12 % ID/g
  Biodistribution: Heart: 6.76 ± 0.82 % ID/g
  Biodistribution: Lungs: 14.39 ± 2.19 % ID/g
  Biodistribution: Skin: 0.34 ± 0.03 % ID/g
[2]; [6]
  Biodistribution: Adrenals: 8.36 ± 2.02 % ID/g
  Biodistribution: Bladder: 0.67 ± 0.36 % ID/g
  Biodistribution: Blood: 0.48 ± 0.11 % ID/g
  Biodistribution: Bone: 0.99 ± 0.18 % ID/g
  Biodistribution: Brain: 0.31 ± 0.06 % ID/g
  Biodistribution: GIT: 1.21 ± 0.11 % ID/g
  Biodistribution: Heart: 7.75 ± 1.08 % ID/g
  Biodistribution: Kidney: 5.18 ± 0.67 % ID/g
  Biodistribution: Liver: 1.54 ± 0.20 % ID/g
  Biodistribution: Lungs: 16.45 ± 2.81 % ID/g
  Biodistribution: Muscle: 0.68 ± 0.16 % ID/g
  Biodistribution: Olfactory bulbs: 0.74 ± 0.14 % ID/g
  Biodistribution: Pancreas: 2.33 ± 0.33 % ID/g
  Biodistribution: Skin: 0.39 ± 0.06 % ID/g
  Biodistribution: Spleen: 8.25 ± 2.25 % ID/g
  Biodistribution: Stomach: 0.95 ± 0.23 % ID/g
  Biodistribution: Testes: 0.35 ± 0.05 % ID/g
  Biodistribution: Thymus: 1.07 ± 0.23 % ID/g
  Biodistribution: Thyroid: 11.40 ± 0.33 % ID/g
[2]; [7]
  Biodistribution: Bone: 1.22 ± 0.10 % ID/g
  Biodistribution: Heart: 6.63 ± 0.35 % ID/g
  Biodistribution: Lungs: 8.41 ± 0.77 % ID/g
  Biodistribution: Skin: 0.37 ± 0.02 % ID/g
[2]; [8]
  Biodistribution: Adrenals: 9.06 ± 3.47 % ID/g
  Biodistribution: Bladder: 0.76 ± 0.16 % ID/g
  Biodistribution: Blood: 0.33 ± 0.11 % ID/g
  Biodistribution: Bone: 1.35 ± 0.27 % ID/g
  Biodistribution: Brain: 0.19 ± 0.04 % ID/g
  Biodistribution: GIT: 1.38 ± 0.36 % ID/g
  Biodistribution: Heart: 7.30 ± 0.90 % ID/g
  Biodistribution: Kidney: 4.77 ± 1.05 % ID/g
  Biodistribution: Liver: 0.94 ± 0.28 % ID/g
  Biodistribution: Lungs: 9.27 ± 1.60 % ID/g
  Biodistribution: Muscle: 0.62 ± 0.15 % ID/g
  Biodistribution: Olfactory bulbs: 0.60 ± 0.14 % ID/g
  Biodistribution: Pancreas: 1.49 ± 0.29 % ID/g
  Biodistribution: Skin: 0.41 ± 0.06 % ID/g
  Biodistribution: Spleen: 6.54 ± 1.35 % ID/g
  Biodistribution: Stomach: 1.18 ± 0.34 % ID/g
  Biodistribution: Testes: 0.38 ± 0.07 % ID/g
  Biodistribution: Thymus: 1.23 ± 0.47 % ID/g
  Biodistribution: Thyroid: 13.24 ± 4.62 % ID/g
[2]; [9]
  Biodistribution: Adrenals: 12.11 ± 3.32 % ID/g
  Biodistribution: Bladder: 1.24 ± 0.29 % ID/g
  Biodistribution: Blood: 0.24 ± 0.08 % ID/g
  Biodistribution: Bone: 2.41 ± 0.24 % ID/g
  Biodistribution: Brain: 0.17 ± 0.04 % ID/g
  Biodistribution: GIT: 1.89 ± 0.37 % ID/g
  Biodistribution: Heart: 8.41 ± 1.91 % ID/g
  Biodistribution: Kidney: 5.08 ± 1.23 % ID/g
  Biodistribution: Liver: 0.82 ± 0.22 % ID/g
  Biodistribution: Lungs: 7.29 ± 2.12 % ID/g
  Biodistribution: Muscle: 0.55 ± 0.11 % ID/g
  Biodistribution: Olfactory bulbs: 0.65 ± 0.14 % ID/g
  Biodistribution: Pancreas: 1.24 ± 0.36 % ID/g
  Biodistribution: Skin: 0.54 ± 0.07 % ID/g
  Biodistribution: Spleen: 6.72 ± 1.91 % ID/g
  Biodistribution: Stomach: 0.91 ± 0.06 % ID/g
  Biodistribution: Testes: 0.51 ± 0.09 % ID/g
  Biodistribution: Thymus: 1.39 ± 0.29 % ID/g
  Biodistribution: Thyroid: 13.04 ± 3.22 % ID/g
[2]; [10]
  Biodistribution: Bone: 2.04 ± 0.09 % ID/g
  Biodistribution: Lungs: 5.68 ± 1.03 % ID/g
  Biodistribution: Skin: 0.46 ± 0.02 % ID/g
[2]; [11]
  Biodistribution: Bone: 4.32 ± 0.33 % ID/g
  Biodistribution: Lungs: 3.02 ± 0.39 % ID/g
  Biodistribution: Skin: 0.63 ± 0.04 % ID/g
[2]; [12]
  Biodistribution: Adrenals: 17.81 ± 3.61 % ID/g
  Biodistribution: Bladder: 1.33 ± 0.17 % ID/g
  Biodistribution: Blood: 0.12 ± 0.02 % ID/g
  Biodistribution: Bone: 4.86 ± 0.86 % ID/g
  Biodistribution: Brain: 0.10 ± 0.02 % ID/g
  Biodistribution: GIT: 2.01 ± 0.27 % ID/g
  Biodistribution: Heart: 4.92 ± 0.66 % ID/g
  Biodistribution: Kidney: 2.57 ± 0.48 % ID/g
  Biodistribution: Liver: 0.44 ± 0.07 % ID/g
  Biodistribution: Lungs: 3.37 ± 0.40 % ID/g
  Biodistribution: Muscle: 0.19 ± 0.05 % ID/g
  Biodistribution: Olfactory bulbs: 0.47 ± 0.06 % ID/g
  Biodistribution: Pancreas: 0.61 ± 0.10 % ID/g
  Biodistribution: Skin: 0.71 ± 0.07 % ID/g
  Biodistribution: Spleen: 3.45 ± 0.43 % ID/g
  Biodistribution: Stomach: 0.51 ± 0.06 % ID/g
  Biodistribution: Testes: 0.67 ± 0.08 % ID/g
  Biodistribution: Thymus: 1.88 ± 0.40 % ID/g
  Biodistribution: Thyroid: 8.91 ± 1.19 % ID/g
